Measured values published in ChEMBL document CHEMBL1201862, “PubChem BioAssay data set” (2004).
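Cultured in 96-well plates, cells were exposed to test compound for 48 hours across five concentrations. GI50 is the concentration that inhibits growth by half.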 Calls of active or inactive are those of the source. Cut-off read from the data, not from the text of the source: active = GI50 up to about 1.1 µM and inactive = higher.

What was measured:
Assay in all cases: DTP human tumour cell line panel, 48 h
SK-MEL-2 = system: SK-MEL-2
NCI-H226 = system: NCI-H226
SNB-19 = system: SNB-19
786-0 = system: 786-0
MOLT-4 = system: MOLT-4
SF-295 = system: SF-295
HCT-15 = system: HCT-15
CCRF-CEM = system: CCRF-CEM
OVCAR-8 = system: OVCAR-8
MDA-MB-435 = system: MDA-MB-435
DU-145 = system: DU-145
RPMI-8226 = system: RPMI-8226
MCF7 = system: MCF7
OVCAR-3 = system: OVCAR-3
PC-3 = system: PC-3
HCC 2998 = system: HCC 2998
A498 = system: A498
SK-MEL-5 = system: SK-MEL-5
HCT-116 = system: HCT-116
Hs-578T = system: Hs-578T

| Compound | GI50 (SK-MEL-2) | GI50 (NCI-H226) | GI50 (SNB-19) | GI50 (786-0) | GI50 (MOLT-4) | GI50 (SF-295) | GI50 (HCT-15) | GI50 (CCRF-CEM) | GI50 (OVCAR-8) | GI50 (MDA-MB-435) | GI50 (DU-145) | GI50 (RPMI-8226) | GI50 (MCF7) | GI50 (OVCAR-3) | GI50 (PC-3) | GI50 (HCC 2998) | GI50 (A498) | GI50 (SK-MEL-5) | GI50 (HCT-116) | GI50 (Hs-578T) |
| --- | --- | --- | --- | --- | --- | --- | --- | --- | --- | --- | --- | --- | --- | --- | --- | --- | --- | --- | --- | --- |
| O=C(CCCc1ccccn1)c1ccccc1 | > 100 µM (inactive) | > 100 µM (inactive) | > 100 µM (inactive) | > 100 µM (inactive) | > 100 µM (inactive) | > 100 µM (inactive) | > 100 µM | > 100 µM (inactive) | > 100 µM (inactive) | > 100 µM (inactive) | > 100 µM (inactive) | > 100 µM (inactive) | > 100 µM (inactive) | > 100 µM (inactive) | > 100 µM (inactive) | > 100 µM (inactive) | > 100 µM (inactive) | > 100 µM (inactive) | > 100 µM (inactive) | > 100 µM (inactive) |
| O=C(Cn1c(-c2ccccc2)cc2ccccc21)N1CCOCC1 | > 100 µM (inactive) | > 100 µM (inactive) | 79.3 µM (inactive) | 41.4 µM (inactive) | > 100 µM (inactive) | > 100 µM (inactive) | > 100 µM | > 100 µM (inactive) | > 100 µM (inactive) | > 100 µM (inactive) | > 100 µM (inactive) | > 100 µM (inactive) | > 100 µM (inactive) | > 100 µM (inactive) | 61.1 µM (inactive) | > 100 µM (inactive) | > 100 µM (inactive) | > 100 µM (inactive) | > 100 µM (inactive) | > 100 µM (inactive) |
| Cc1ccc(S(=O)(=O)N2C[C@@H]3CC[C@]4(CO[Si](C)(C)C(C)(C)C)N[C@@H](c5ccccc5)[C@H]2[C@H]34)cc1 | 48.2 µM (inactive) | 14.4 µM (inactive) | 61.4 µM (inactive) | 27.8 µM (inactive) | 19 µM (inactive) | 24.9 µM (inactive) | 24.7 µM | 43.2 µM (inactive) | 39.7 µM (inactive) | 39.2 µM (inactive) | 45 µM (inactive) | 7.87 µM (inactive) | 28.6 µM (inactive) | 32 µM (inactive) | 18.2 µM (inactive) | 18.4 µM (inactive) | 48.8 µM (inactive) | 13.8 µM (inactive) | 12 µM (inactive) | 27.4 µM (inactive) |
| Cc1cc(C)c2c(=O)cc(-c3ccccc3)[nH]c2c1 | 8.17 µM (inactive) | 9.66 µM (inactive) | 5.43 µM (inactive) | 2.07 µM (inactive) | 2.96 µM (inactive) | 3.63 µM (inactive) | 0.828 µM | 1.49 µM (inactive) | 3.66 µM (inactive) | 0.211 µM (active) | 4.44 µM (inactive) | 2.02 µM (inactive) | 3.01 µM (inactive) | 3.47 µM (inactive) | 2.06 µM (inactive) | 1.38 µM (inactive) | 1.35 µM (inactive) | 1.3 µM (inactive) | 0.889 µM (active) | 4.59 µM (inactive) |
| CC[C@@]1(O)C(=O)OCc2c1cc1n(c2=O)Cc2c-1nc1ccccc1c2/C=N\NC(=O)C(N)CC(C)C (some centres undefined) | 0.6 µM (active) | 0.0277 µM (active) | < 0.01 µM (active) | < 0.01 µM (active) | < 0.01 µM (active) | < 0.01 µM (active) | 0.24 µM | < 0.01 µM (active) | < 0.0132 µM (active) | 0.143 µM (active) | < 0.01 µM (active) | 0.024 µM (active) | < 0.01 µM (active) | 0.297 µM (active) | < 0.0188 µM (active) | 0.118 µM (active) | 0.0314 µM (active) | < 0.0128 µM (active) | 0.0161 µM (active) | 11.3 µM (inactive) |
| COc1ccc(N2CN3OC(=O)N(c4ccc(OC)cc4)[C@@]3(c3ccccc3)C2)cc1 | 5.51 µM (inactive) | 47.6 µM (inactive) | 44 µM (inactive) | 51.1 µM (inactive) | 7.23 µM (inactive) | 16.5 µM (inactive) | 5.18 µM | 6 µM (inactive) | 33.3 µM (inactive) | 2.4 µM (inactive) | 81.5 µM (inactive) | 18.7 µM (inactive) | 16.9 µM (inactive) | 13.1 µM (inactive) | 10.8 µM (inactive) | 11.5 µM (inactive) | 19.5 µM (inactive) | 11.9 µM (inactive) | 18.7 µM (inactive) | 37.6 µM (inactive) |
| N=C(N)NS(=O)(=O)c1ccc(NC(=O)c2ccc3nc4ccccc4c(Nc4ccc(S(N)(=O)=O)cc4)c3c2)cc1 | > 100 µM (inactive) | > 100 µM (inactive) | > 100 µM (inactive) | > 100 µM (inactive) | > 100 µM (inactive) | > 100 µM (inactive) | > 100 µM | > 100 µM (inactive) | > 100 µM (inactive) | > 100 µM (inactive) | > 100 µM (inactive) | > 100 µM (inactive) | > 100 µM (inactive) | > 100 µM (inactive) | > 100 µM (inactive) | > 100 µM (inactive) | > 100 µM (inactive) | > 100 µM (inactive) | > 100 µM (inactive) | > 100 µM (inactive) |
| O=[N+]([O-])c1cccc2nccc(NCCN3CCOCC3)c12 | 14.7 µM (inactive) | 10.2 µM (inactive) | 25.7 µM (inactive) | 25.2 µM (inactive) | 8.43 µM (inactive) | 13.9 µM (inactive) | 9.35 µM | 5.55 µM (inactive) | 20.1 µM (inactive) | 22.9 µM (inactive) | 41.7 µM (inactive) | 7.94 µM (inactive) | 9.46 µM (inactive) | 14.2 µM (inactive) | 9.64 µM (inactive) | 11.5 µM (inactive) | 13.2 µM (inactive) | 10 µM (inactive) | 13.4 µM (inactive) | 15.9 µM (inactive) |
| N=c1oc2ccc(Cl)cc2cc1C(=O)NC1CCCCC1 | 47.6 µM (inactive) | 90.4 µM (inactive) | > 100 µM (inactive) | 87.9 µM (inactive) | 44.2 µM (inactive) | – | 37.8 µM | 33.7 µM (inactive) | > 100 µM (inactive) | 49.2 µM (inactive) | 73.8 µM (inactive) | 59.3 µM (inactive) | 58.6 µM (inactive) | 44.4 µM (inactive) | 68.5 µM (inactive) | 32.1 µM (inactive) | 63.8 µM (inactive) | 84.3 µM (inactive) | 55.5 µM (inactive) | 30.9 µM (inactive) |
| COC(=O)c1ccc2cc(O)c(O)cc2c1 | 39.5 µM (inactive) | 38.9 µM (inactive) | 22.8 µM (inactive) | 41.8 µM (inactive) | 15.5 µM (inactive) | 38.3 µM (inactive) | 33 µM | 18.9 µM (inactive) | 33 µM (inactive) | 34.7 µM (inactive) | 53.2 µM (inactive) | 29.4 µM (inactive) | 42.9 µM (inactive) | 31.1 µM (inactive) | 32.4 µM (inactive) | > 68.9 µM (inactive) | 30.8 µM (inactive) | 22.1 µM (inactive) | 41 µM (inactive) | 22.8 µM (inactive) |
